Results on 8 compounds are retold here after publication doi:10.1101/2024.01.22.576576v1, “Phenotypic screening of covalent compound libraries identifies chloromethyl ketone antibiotics and MiaA as a new target” (biorxiv, 2024).

For experiment [1], the system named is T1, S. flexneri M90T.
T1 construct: M90T
Put plainly: microbe, parasite or virus in culture. Details: species or system bacterial strain; broth microdilution MIC, OD600, lowest concentration without visible bacterial growth. The conditions noted are these: Shigella flexneri, read-out: MIC SF. The method, then: (§1) MIC measurement. The minimum inhibitory concentrations (MICs) of compounds were measured using the broth microdilution method.1 One stab using 10 µL tip from bacteria glycerol stock was inoculated into 5 mL of LB supplemented with selection antibiotics (Kanamycin for Keio collections and chloramphenicol for ASKA collections), and the culture was incubated at 37 °C with shaking overnight. […] The plate was incubated at 37 °C for 16 ~ 20 h with shaking at 80 rpm and the OD600 was measured using Cytation 5 plate reader (BioTek). MIC was determined as the lowest concentration for which no bacterial growth was observed. LB was used as the growth media for all the bacteria strains unless otherwise mentioned. For S. aureus and A. baumannii strains, tryptic soy broth (TSB, BD, DF0370-17-3) was used as the growth media instead of LB. For P. aeruginosa and K. pneumoniae strains, nutrient broth (NB, RPI, N15100) was used as growth media. All MIC measurements were performed in at least biological duplicates.

The next experiment deals with T2, E. coli JPN15.
T2 construct: JPN15 (EPEC)
Description: microbe, parasite or virus in culture. The conditions noted are these: Escherichia coli, JPN15, read-out: MIC EC. Also on record: species or system bacterial strain; broth microdilution MIC, OD600, lowest concentration without visible bacterial growth. The method, then:
as §1

A further experiment relates to T3, V. cholerae SAD30.
T3 construct: SAD30
Put plainly: microbe, parasite or virus in culture. Also on record: species or system bacterial strain; broth microdilution MIC, OD600, lowest concentration without visible bacterial growth. To be noted: Vibrio cholerae, SAD30, read-out: MIC VC. As to the method:
as §1

Another experiment deals with T4, S. aureus MSSA476.
T4 construct: MSSA476
Description: microbe, parasite or virus in culture. Details: species or system bacterial strain; broth microdilution MIC, OD600, lowest concentration without visible bacterial growth. To be noted: Staphylococcus aureus, MSSA476, read-out: MIC SA. As to the method: as §1

For experiment [2], the system named is S. flexneri M90T. Put plainly: microbe, parasite or virus in culture. To be noted: Shigella flexneri, read-out: MIC SF. The method, then:
as §1

The target of experiment [3] is T5, Sf_MiaA (Shigella flexneri, UniProt P59197).
T5 construct: gene miaA; recombinant, purified from E. coli BL21; two cysteines in total; also native protein in live S. flexneri M90T (ABPP row)
T5 sequence (P59197 1-316): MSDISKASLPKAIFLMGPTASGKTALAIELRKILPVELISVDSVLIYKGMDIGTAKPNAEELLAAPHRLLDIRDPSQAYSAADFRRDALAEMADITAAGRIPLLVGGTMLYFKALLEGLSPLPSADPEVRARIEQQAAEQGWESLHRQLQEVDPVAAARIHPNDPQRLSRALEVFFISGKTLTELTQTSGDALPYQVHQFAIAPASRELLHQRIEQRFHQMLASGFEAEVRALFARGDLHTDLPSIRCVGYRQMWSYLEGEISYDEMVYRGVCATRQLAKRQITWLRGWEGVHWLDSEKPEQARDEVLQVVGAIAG
Put plainly: i6A-37 tRNA formation followed by LC-MS after preincubation. Format: biochemical. To be noted: covalent; Cys273; tRNA-Trp 34-mer substrate. The method, then: i6A-37 tRNA formation followed by LC-MS after preincubation on Sf_MiaA | preincubation of 10-F05 with MiaA decreased the initial velocity of modified tRNA forming rate

For the next experiment, the target named is T6, Sa_FabH (Staphylococcus aureus, UniProt Q6GAU3).
T6 construct: gene fabH; purified protein
T6 sequence (Q6GAU3 1-313): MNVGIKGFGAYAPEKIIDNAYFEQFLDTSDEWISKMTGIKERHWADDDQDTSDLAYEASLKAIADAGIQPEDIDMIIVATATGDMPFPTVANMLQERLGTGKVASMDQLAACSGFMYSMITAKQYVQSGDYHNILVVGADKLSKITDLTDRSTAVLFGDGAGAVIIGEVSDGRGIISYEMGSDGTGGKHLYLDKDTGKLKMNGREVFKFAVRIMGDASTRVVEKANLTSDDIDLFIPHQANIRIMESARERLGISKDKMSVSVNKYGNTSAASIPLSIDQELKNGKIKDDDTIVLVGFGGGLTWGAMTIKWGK
Description: in-gel fluorescence competition with 5-TMRIA. The conditions noted are these: covalent. It is filed as binding.

The next experiment concerns the target T7, Sf_FabH (Shigella flexneri, UniProt Q83RS8).
T7 construct: gene fabH; recombinant, purified from E. coli BL21; also native protein in live S. flexneri M90T (ABPP rows)
T7 sequence (Q83RS8 1-317): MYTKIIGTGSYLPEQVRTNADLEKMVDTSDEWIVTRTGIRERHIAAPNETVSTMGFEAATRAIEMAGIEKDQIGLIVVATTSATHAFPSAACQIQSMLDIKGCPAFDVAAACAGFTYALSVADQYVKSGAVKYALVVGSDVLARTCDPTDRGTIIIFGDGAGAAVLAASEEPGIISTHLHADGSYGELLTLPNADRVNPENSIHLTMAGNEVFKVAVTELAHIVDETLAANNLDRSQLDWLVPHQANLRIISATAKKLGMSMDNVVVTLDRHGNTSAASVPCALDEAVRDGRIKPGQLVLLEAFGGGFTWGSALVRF
Description: in-gel fluorescence competition with 5-TMRIA. It is filed as binding. To be noted: covalent; 1 h preincubation.

Another experiment deals with T8, E. cloacae 13047.
T8 construct: 13047
Put plainly: microbe, parasite or virus in culture. Details: species or system bacterial strain; broth microdilution MIC, OD600, lowest concentration without visible bacterial growth. To be noted: Enterobacter cloacae, 13047, read-out: 10-F05 MIC µM. As to the method:
as §1

The next experiment relates to T9, P. aeruginosa BAA-2110.
T9 construct: BAA-2110
Description: microbe, parasite or virus in culture. Also on record: species or system bacterial strain; broth microdilution MIC, OD600, lowest concentration without visible bacterial growth. To be noted: Pseudomonas aeruginosa, BAA2110, read-out: 10-F05 MIC µM. As to the method:
as §1

Another experiment relates to T10, E. coli (KPC+) BAA-2340.
T10 construct: BAA-2340 (KPC+)
Description: microbe, parasite or virus in culture. Details: species or system bacterial strain; broth microdilution MIC, OD600, lowest concentration without visible bacterial growth. To be noted: Escherichia coli, BAA2340, read-out: 10-F05 MIC µM. The method, then: as §1

A further experiment deals with T11, K. pneumoniae 13883.
T11 construct: 13883
Description: microbe, parasite or virus in culture. Also on record: species or system bacterial strain; broth microdilution MIC, OD600, lowest concentration without visible bacterial growth. The conditions noted are these: Klebsiella pneumoniae, 13883, read-out: 10-F05 MIC µM. As to the method:
as §1

The next experiment deals with T12, A. baumannii BAA-1790.
T12 construct: BAA-1790
Put plainly: microbe, parasite or virus in culture. To be noted: Acinetobacter baumannii, BAA1790, read-out: 10-F05 MIC µM. Details: species or system bacterial strain; broth microdilution MIC, OD600, lowest concentration without visible bacterial growth. As to the method:
as §1

The next experiment has as its system T13, K. pneumoniae 700603.
T13 construct: 700603
Put plainly: microbe, parasite or virus in culture. Details: species or system bacterial strain; broth microdilution MIC, OD600, lowest concentration without visible bacterial growth. The conditions noted are these: Klebsiella pneumoniae, 700603, read-out: 10-F05 MIC µM. The method, then: as §1

Experiment [4] addresses T5, Sf_MiaA. Put plainly: in-gel fluorescence competition with 5-TMRIA. Format: binding. The conditions noted are these: covalent; Cys273; 1 h preincubation.
For another experiment, the target named is T14, Sf_PdxY (Shigella flexneri, UniProt Q83KY1).
T14 construct: gene pdxY; recombinant, purified from E. coli BL21; also native protein in live S. flexneri M90T (ABPP row)
T14 sequence (Q83KY1 1-287): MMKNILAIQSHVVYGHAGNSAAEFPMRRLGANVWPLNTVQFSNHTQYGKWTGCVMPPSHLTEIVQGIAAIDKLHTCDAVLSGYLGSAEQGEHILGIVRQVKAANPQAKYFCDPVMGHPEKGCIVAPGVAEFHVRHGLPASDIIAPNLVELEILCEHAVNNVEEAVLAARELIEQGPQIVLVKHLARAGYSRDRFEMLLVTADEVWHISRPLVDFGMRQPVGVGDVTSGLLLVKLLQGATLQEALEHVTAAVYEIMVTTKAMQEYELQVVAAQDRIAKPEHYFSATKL
Put plainly: in-gel fluorescence competition with 5-TMRIA. It is filed as binding. To be noted: covalent; 1 h preincubation.

Converted amounts (≈) assume the structure as drawn. Like-named read-outs stand apart in the source and are kept apart here. Bounds are passed on as bounds.

As to `Cc1cccc(-n2cc(C(=O)CCl)nn2)c1` [10-L07], the MIC was 5 µM (≈ 1.18 µg/mL) in the experiment with S. flexneri M90T [1], 50 µM (≈ 11.8 µg/mL) in the experiment on E. coli JPN15, 25 µM (≈ 5.89 µg/mL) in the experiment on V. cholerae SAD30 and 10 µM (≈ 2.36 µg/mL) with S. aureus MSSA476.
Take `CC(=O)c1cnccc1F` [10-I09-N]: the MIC in the experiment with E. coli JPN15, with V. cholerae SAD30, in the experiment on S. aureus MSSA476 and in the experiment with S. flexneri M90T [2] was more than 100 µM throughout.
With `CC(=O)c1cn(-c2cccc(C)c2)nn1` [10-L07-N], the MIC in the experiment with E. coli JPN15, in the experiment on V. cholerae SAD30, in the experiment with S. aureus MSSA476 and in the experiment with S. flexneri M90T [2] was more than 100 µM throughout.
Take `CC(=O)c1ccccn1` [10-J03-N]: the MIC in the experiment with E. coli JPN15, in the experiment with V. cholerae SAD30, in the experiment with S. aureus MSSA476 and in the experiment with S. flexneri M90T [2] was more than 100 µM throughout.
On to `O=C(CCl)c1cn(-c2ccc(F)cc2)nn1` [10-F05], for which the “fold decrease in initial velocity” value on Sf_MiaA [3] came out at 1.7 fold. Also, the “in-gel fluorescence competition with 5-TMRIA” value was 10-F05 was able to bind with S. aureus FabH (Sa_FabH, Figure 5C) on Sa_FabH; “rapid covalent bond formation between 10-F05 and Sf_FabH (Figure 5B)” on Sf_FabH; “indicating 10-F05 specifically reacts with MiaA Cys273” at Sf_MiaA [4]; “preincubation of 10-F05 decreased the 5-TMRIA labeling in a dose-dependent manner (Figure 5A)” on Sf_PdxY. Moreover, the MIC in the experiment with S. flexneri M90T [1] was 2.5 µM (≈ 0.599 µg/mL); in the experiment on E. cloacae 13047, 50 µM (≈ 12 µg/mL); in the experiment on P. aeruginosa BAA-2110, more than 100 µM; in the experiment on E. coli (KPC+) BAA-2340, 50 µM (≈ 12 µg/mL); with K. pneumoniae 13883, 50 µM (≈ 12 µg/mL); with E. coli JPN15, 25 µM (≈ 5.99 µg/mL). Besides, the MIC is 10 µM (≈ 2.4 µg/mL) in the experiment with V. cholerae SAD30, more than 100 µM in the experiment on A. baumannii BAA-1790, 10 µM (≈ 2.4 µg/mL) with S. aureus MSSA476 and more than 100 µM in the experiment with K. pneumoniae 700603.
On to `O=C(CCl)c1cn(-c2cccc(C(F)(F)F)c2)nn1` [10-C09], for which the MIC with S. flexneri M90T [1] amounted to 25 µM (≈ 7.24 µg/mL); in the experiment on E. coli JPN15, 100 µM (≈ 29 µg/mL); with V. cholerae SAD30, 100 µM (≈ 29 µg/mL); in the experiment on S. aureus MSSA476, 25 µM (≈ 7.24 µg/mL).
`Cn1cc(C(=O)CCl)nn1` [10-M19]: the MIC in the experiment on S. flexneri M90T [1] is 50 µM (≈ 7.98 µg/mL); with E. coli JPN15 it was 50 µM (≈ 7.98 µg/mL); with V. cholerae SAD30 it was 50 µM (≈ 7.98 µg/mL); in the experiment on S. aureus MSSA476, 100 µM (≈ 16 µg/mL).
Consider `CC(=O)c1cn(-c2ccc(F)cc2)nn1` [10-F05-N], for which the MIC in the experiment with E. coli JPN15, with V. cholerae SAD30, with S. aureus MSSA476 and with S. flexneri M90T [2] was more than 100 µM throughout.
